PubChem BioAssay (NCI)
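Cultured in 96-well plates, cells were exposed to test compound for 48 hours across five concentrations. GI50 is the concentration that inhibits growth by half. At the TGI there is no net growth.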

How the values were obtained:
Assay in all cases: growth of human tumour cells (NCI), 48 h
[1] = system: MDA-MB-468 breast
[2] = system: MDA-MB-231 breast
[3] = system: MOLT-4 leukemia
[4] = system: MALME-3M melanoma
[5] = system: SN12C renal
[6] = system: IGROV1 ovarian
[7] = system: SK-MEL-5 melanoma
[8] = system: OVCAR-3 ovarian
[9] = system: SNB-19 CNS
[10] = system: SF-268 CNS
[11] = system: NCI-H23 lung
[12] = system: UACC-62 melanoma
[13] = system: ACHN renal
[14] = system: OVCAR-8 ovarian
[15] = system: SW-620 colon
[16] = system: UACC-257 melanoma
[17] = system: K-562 leukemia
[18] = system: SK-MEL-28 melanoma
[19] = system: HT29 colon
[20] = system: EKVX NSCLC
[21] = system: HCC-2998 colon
[22] = system: CCRF-CEM leukemia
[23] = system: U251 CNS
[24] = system: SR leukemia
[25] = system: SK-OV-3 ovarian
[26] = system: A498 renal
[27] = system: TK-10 renal
[28] = system: HCT-15 colon
[29] = system: HOP-62 NSCLC
[30] = system: OVCAR-5 ovarian
[31] = system: 786-0 renal
[32] = system: RXF 393 renal
[33] = system: NCI-H460 lung
[34] = system: KM12 colon
[35] = system: MCF7 breast
[36] = system: CAKI-1 renal
[37] = system: LOX IMVI melanoma
[38] = system: A549 NSCLC
[39] = system: DU-145 prostate
[40] = system: HL-60(TB) leukemia
[41] = system: SF-295 CNS
[42] = system: NCI-H226 lung
[43] = system: M14 melanoma
[44] = system: HS 578T breast
[45] = system: HCT-116 colon
[46] = system: OVCAR-4 ovarian
[47] = system: MDA-MB-435
[48] = system: SF-539 CNS
[49] = system: BT-549 breast
[50] = system: RPMI-8226 leukemia
[51] = system: HOP-92 NSCLC
[52] = system: T-47D breast
[53] = system: SK-MEL-2 melanoma
[54] = system: NCI-H522 lung
[55] = system: UO-31 renal
[56] = system: COLO 205 colon
[57] = system: NCI/ADR-RES ovarian
[58] = system: SNB-75 CNS
[59] = system: PC-3 prostate

CN(C)c1ccnc(CNCCSC2(c3ccc(C(F)(F)F)cc3)c3ccccc3C=Cc3ccccc32)c1
GI50 [1]: 0.74 µM | TGI [1]: 1.99 µM | GI50 [2]: 1.11 µM | TGI [2]: 3.36 µM | GI50 [3]: 1.12 µM | TGI [3]: 5.41 µM | GI50 [4]: 2.35 µM | TGI [4]: 6.51 µM | GI50 [5]: 2.16 µM | TGI [5]: 8.08 µM | GI50 [6]: 2.58 µM | TGI [6]: 16 µM | GI50 [7]: 1.96 µM | TGI [7]: 5.43 µM | GI50 [8]: 1.73 µM | TGI [8]: 5.93 µM | GI50 [9]: 3.53 µM | TGI [9]: 17.3 µM | GI50 [10]: 3.67 µM | TGI [10]: 16.6 µM | GI50 [11]: 2.8 µM | TGI [11]: 9.31 µM | GI50 [12]: 3.41 µM | TGI [12]: 8.81 µM | GI50 [13]: 3.21 µM | TGI [13]: 14.6 µM | GI50 [14]: 1.18 µM | TGI [14]: 4.73 µM | GI50 [15]: 1 µM | TGI [15]: 4.45 µM | GI50 [16]: 4.33 µM | TGI [16]: 11.2 µM | GI50 [17]: 2.8 µM | TGI [17]: 14 µM | GI50 [18]: 4.34 µM | TGI [18]: 9.09 µM | GI50 [19]: 1.79 µM | TGI [19]: 5.65 µM | GI50 [20]: 1.77 µM | TGI [20]: 14.2 µM | GI50 [21]: 0.91 µM | TGI [21]: 2.63 µM | GI50 [22]: 1.06 µM | TGI [22]: 13.4 µM | GI50 [23]: 1.11 µM | TGI [23]: 4.03 µM | GI50 [24]: 0.723 µM | TGI [24]: 4.15 µM | GI50 [25]: 4.38 µM | TGI [25]: 13.7 µM | GI50 [26]: 11.9 µM | TGI [26]: 27.2 µM | GI50 [27]: 7.1 µM | TGI [27]: 21.3 µM | GI50 [28]: 1.12 µM | TGI [28]: 6.62 µM | GI50 [29]: 2.69 µM | TGI [29]: 13.9 µM | GI50 [30]: 2.74 µM | TGI [30]: 11.2 µM | GI50 [31]: 2.49 µM | TGI [31]: 7.12 µM | GI50 [32]: 1.97 µM | TGI [32]: 7.54 µM | GI50 [33]: 1.09 µM | TGI [33]: 3.86 µM | GI50 [34]: 1.41 µM | TGI [34]: 5.33 µM | GI50 [35]: 0.853 µM | TGI [35]: 4.19 µM | GI50 [36]: 4.37 µM | TGI [36]: 16.5 µM | GI50 [37]: 2.2 µM | TGI [37]: 6.16 µM | GI50 [38]: 1.35 µM | TGI [38]: 5.71 µM | GI50 [39]: 3.12 µM | TGI [39]: 10.8 µM | GI50 [40]: 1.2 µM | TGI [40]: 3.91 µM | GI50 [41]: 1.6 µM | TGI [41]: 6.56 µM | GI50 [42]: 5.45 µM | TGI [42]: 16.3 µM | GI50 [43]: 0.598 µM | TGI [43]: 2.69 µM | GI50 [44]: 1.57 µM | TGI [44]: 6.75 µM | GI50 [45]: 0.611 µM | TGI [45]: 12.5 µM | GI50 [46]: 5.33 µM | TGI [46]: 16.3 µM | GI50 [47]: 0.605 µM | TGI [47]: 1.34 µM | GI50 [48]: 1.12 µM | TGI [48]: 3.18 µM | GI50 [49]: 3.19 µM | TGI [49]: 9.62 µM | GI50 [50]: 1.03 µM | TGI [50]: 4.41 µM | GI50 [51]: 2.17 µM | TGI [51]: 10.2 µM | GI50 [52]: 4.63 µM | TGI [52]: 15.7 µM | GI50 [53]: 1.2 µM | TGI [53]: 3.72 µM | GI50 [54]: 0.771 µM | TGI [54]: 2.49 µM | GI50 [55]: 3.91 µM | TGI [55]: 16.2 µM | GI50 [56]: 0.927 µM | TGI [56]: 2.9 µM | GI50 [57]: 2 µM | TGI [57]: 4.39 µM | GI50 [58]: 1.76 µM | TGI [58]: 6.61 µM | GI50 [59]: 1.49 µM | TGI [59]: 11.3 µM
